Consider two compounds from patent US20090068290A1, “BIFEPRUNOX DOSES FOR TREATING SCHIZOPHRENIA” (priority 2006, published 2009).

In data set [1] the test system is adult subjects with schizophrenia. Kind of data set: Adverse events (TEAE, SAE, special interest, discontinuation, EPS-related TEAE), Clinical Study Three. Conditions: Risperidone 6 mg. The protocol: There were four treatment arms in this study, approximately 144 subjects per arm. […] After completing the Single-Blind Placebo Lead-in Period of at least three days, bifeprunox-treated subjects were titrated from 0.25 mg up to 20 mg/day or 30 mg/day according to a standardized titration scheme over a seven- or eight-day period, respectively. When the assigned dose was reached, subjects were maintained at that dose for the remainder of the six week treatment period. […] Subjects were hospitalized (if not already inpatients) after eligibility for study entry was verified, starting from the Screening Visit until at least 10 days after Baseline. Subjects could be hospitalized longer than 10 days if considered medically necessary by the Investigator. Rating scale assessments for efficacy and abnormal movement disorders were done weekly except for Week 5. Safety assessments were performed at Screening, during treatment and at the end of the study. Subject satisfaction with study medication was assessed at Week 6. Samples of whole blood were obtained at Weeks 2, 4, and 6 for determination of bifeprunox in plasma.
EPS were assessed using treatment-emergent adverse events such as akathisia, dyskinesia, parkinsoniam, etc. and/or formal rating scales such as SAS, BAS, and/or AIMS.

Data set [2] shares this test system. Kind of data set: CGI responder rate, Clinical Study Two. The format is in vivo, human. Conditions: LOCF. On the procedure: Notable differences were also observed between the 30 mg bifeprunox group and placebo for the change from baseline to endpoint in PANSS general psychopathology subscale score, BPRS total score, BPRS psychosis cluster score, PANSS responder rate, and CGI-I responder rate. In the study, a PANSS responder refers to a subject whose PANSS total score decreased by 20% or more from baseline to endpoint. A CGI-I responder refers to a subject who was categorized as “very much improved” or “much improved” in the CGI Global Improvement scale at endpoint.
Pharmacokinetic (PK) data of bifeprunox in schizophrenic subjects were also assessed and are presented in a separate report (combined with data from study S1543003).
Subjects who completed this study had the option to continue in the long-term. […] Risperidone-treated subjects were titrated from 2 mg to 6 mg daily over a three-day period and were subsequently maintained at 6 mg/day for the remainder of the treatment period. […] Blood samples were also obtained at Screening/Baseline, Week 3, and Week 6 for clinical laboratory assessments.
CLINICAL STUDY TWO: A CGI responder is defined as a subject who is categorized as “very much improved” or “much improved” on the CGI Improvement scale. […] A notable difference between the 30 mg bifeprunox group and placebo was seen (p=0.039).

For data set [3] the test system is unchanged. Kind of data set: BPRS total score, Clinical Study One. Format: in vivo, human. Particulars: Risperidone 6 mg, ITT population. On the procedure:
There were five treatment groups in this study. […] Study medication was administered once daily. After Baseline measurements were performed, the titration phase was begun. Bifeprunox treated subjects were titrated up to 5 mg, 10 mg or 20 mg according to a standardized titration schedule (Day 1: 0.125 mg, Day 2: 0.25 mg, Day 3: 0.5 mg, Day 4: 1.0 mg, Day 5: 2.0 mg, Day 6: 5.0 mg, Day 7: 10.0 mg, Day 8: 20 mg). When the assigned dose was reached, subjects were maintained at that dose for the remainder of the six-week treatment period.
The change in the Positive and Negative Symptom Scale (PANSS) total score, from baseline to endpoint, was the primary outcome measure. Secondary efficacy measures included: PANSS positive, PANSS negative, PANSS general psychopathology (GPP) score, PANSS-derived Brief Psychiatric Rating Scale (BPRS) score, Clinical Global Impressions-Severity of Illness (CGI-S), CGI-Improvement (CGI-I) scores, and responder rates. Safety and tolerability evaluations included extrapyramidal symptoms (EPS), weight gain, lipid profile, and serum prolactin.

Data set [4] has the same test system. Kind of data set: BPRS total score, Clinical Study Three. The format is in vivo, human. Conditions: LOCF; for Change from Baseline in BPRS Total Score, Mean (SD) / Change from Baseline in BPRS Total Score, Median: Olanzapine 15 mg, ITT population.
Text: SECONDARY OBJECTIVES To assess the efficacy of bifeprunox in treating schizophrenia using the Positive Symptom sub-scale score of the PANSS, the Negative Symptom sub-scale score of the PANSS, the General Psychopathology sub-scale of the PANSS, Brief Psychiatric Rating Scale (BPRS) total score derived from the PANSS, BPRS psychosis score derived from the PANSS, the Clinical Global Impression Severity of Illness score (CGI-S), the Clinical Global Impression Improvement score (CGI-I), CGI-I responder rate, PANSS responder rate based on the PANSS total score, Calgary Depression Scale for Schizophrenia (CDSS), and Subject Satisfaction rating.
There were four treatment arms in this study, approximately 144 subjects per arm. […] After completing the Single-Blind Placebo Lead-in Period of at least three days, bifeprunox-treated subjects were titrated from 0.25 mg up to 20 mg/day or 30 mg/day according to a standardized titration scheme over a seven- or eight-day period, respectively. When the assigned dose was reached, subjects were maintained at that dose for the remainder of the six week treatment period. […] Subjects were hospitalized (if not already inpatients) after eligibility for study entry was verified, starting from the Screening Visit until at least 10 days after Baseline. Subjects could be hospitalized longer than 10 days if considered medically necessary by the Investigator. Rating scale assessments for efficacy and abnormal movement disorders were done weekly except for Week 5. […] Subject satisfaction with study medication was assessed at Week 6.

Regarding `Cc1nc2n(c(=O)c1CCN1CCC(c3noc4cc(F)ccc34)CC1)CCCC2` [Risperidone, risperidone, reference compound], in data set [1], the “AKATHISIA, %” value amounted to 3%; the “BALANCE DISORDER, %” value is 1 (<1%); the “DIZZINESS, %” value worked out at 5%; the “DYSARTHRIA, %” value was 1 (<1%). For the same compound, in data set [1], the “DYSKINESIA, %” value is listed as 1 (<1%); the “EXTRAPYRAMIDAL DISORDER, %” value is reported as 1%; the “HEADACHE, %” value is listed as 12%; the “HYPOKINESIA, %” value is recorded as 1 (<1%). Besides, in data set [1], the “Hypoaesthesia, %” value is 1 (<1%)); the “MUSCULOSKELETAL STIFFNESS, %” value is on record as 1 (<1%); the “NECK PAIN, %” value is 1%; the “NERVOUS SYSTEM DISORDERS, %” value is on record as 37%. Also, in data set [1], the “PAIN IN EXTREMITY, %” value was found to be 2%; the “PARAESTHESIA, %” value is given as 1 (<1%); the “RESTLESS LEGS SYNDROME, %” value is on record as 1 (<1%); the “SEDATION, %” value worked out at 8%. In addition, in data set [1], the “SOMNOLENCE, %” value is reported as 9%; the “SPEECH DISORDER, %” value is recorded as 1 (<1%); the “TREMOR, %” value was 3%. Moreover, in data set [2] (6 mg), the “CGI Responder at Endpoint No, %” value is reported as 48% and the “CGI Responder at Endpoint Yes, %” value came out at 52%. For the same compound, the “CGI-I responder rate (subjects much or very much improved) at Endpoint” value in data set [2] (risperidone 6 mg) is on record as 52%. Further, in data set [3] (Endpoint LOCF), the “Change from Baseline in BPRS Total Score, Mean (S.D.)” value (“Change from Baseline … (S.D.)” for short) is given as −9.2 (8.9) and the “Change from Baseline in BPRS Total Score, Median” value (“Change from Baseline … Median” below) is reported as −9. For the same compound, in data set [3] (Week 1, LOCF), the “Change from Baseline … (S.D.)” value is recorded as −4.6 (6.5) and the “Change from Baseline … Median” value is listed as −3. In data set [3] (Week 2, LOCF), the “Change from Baseline … (S.D.)” value is −7.6 (8.4) and the “Change from Baseline … Median” value is listed as −7. In data set [3] (Week 3, LOCF), the “Change from Baseline … (S.D.)” value is listed as −9.1 (8.4) and the “Change from Baseline … Median” value is −9. In addition, in data set [3] (Week 4, LOCF), the “Change from Baseline … (S.D.)” value is given as −8.6 (9.0) and the “Change from Baseline … Median” value is −7.

Take `Cc1cc2c(s1)Nc1ccccc1N=C2N1CCN(C)CC1` [Olanzapine, olanzapine, reference compound]: the “Change from Baseline in BPRS Total Score, Mean (SD)” value is listed as −5.6 (6.7) in data set [4] (Week 1); −8.9 (8.2) in data set [4] (Week 2); −11.4 (9.3) in data set [4] (Week 3); −12.0 (9.8) in data set [4] (Week 4); −13.2 (10.7) in data set [4] (Week 6/Endpoint). Further, the “Change from Baseline … Median” value in data set [4] (Week 1) is reported as −4; in data set [4] (Week 2), −8; in data set [4] (Week 3) it was −11; in data set [4] (Week 4), −11; in data set [4] (Week 6/Endpoint) it was −12. The “mean change (SD) from Baseline to Endpoint in BPRS total score” value in data set [4] (olanzapine 15 mg, ITT) is on record as −13.2 (10.7).
